# Patent US8455394B2 (priority 2009, dated 2013)
# Experiments:
# Phytophthora capsici = assay: In vitro fungitoxicity assay against Phytophthora capsici in copper-minus AS and copper-plus AS medium; type: cell-based; settings: CuCl2 50 uM without any test compound, across experiments
# Method: In vitro fungitoxicity assays against Phytophthora capsici were conducted using the asparagine-sucrose (AS) medium described in Canadian Journal of Microbiology 1961, 7, 15-25, except that copper micronutrient, normally included as CuSO4, was omitted. The medium, termed “copper-minus AS”, was prepared by dissolving 2 g asparagine, 0.43 g KH2PO4, 0.3 g K2HPO4, 0.4 mL of a 0.5 mg/mL thiamine-HCl solution and 15 g sucrose in 1 liter of deionized water and treating the solution with 0.5 g Chelex 100 resin (Bio-Rad Analytical grade, 50-100 mesh, sodium form, cat#142-2822) by stirring at room temperature for 1 h. The pH was adjusted to 6.4, then MgSO4.7H2O (100 μg/mL), FeSO4.7H2O (1 μg/mL), CaCl2 (50 μg/mL), ZnSO4.7H2O (1 μg/mL), NaMoO4.2H2O (0.2 μg/mL) and MnCl2.4H2O (0.2 μg/mL) were added and the entire medium was sterilized by filtration. […]
# Phytophthora capsici was grown on petri plates, 9 cm in diameter, containing 15 mL V-8 agar, pH 7.0, containing 200 mL V-8 juice, 4 g CaCO3, and 20 g agar per liter. […] Microtiter plates were inoculated with 100 μL of spore suspension and incubated at 25° C. for 48 h before assessing fungal growth by measuring light scattering in a NepheloStar plate reader. Growth inhibition was determined by comparing growth in the presence of test compound with growth in control wells lacking test compound. […]
# [1] = tested on: Leptosphaeria nodorum (LEPTNO); assay: In vitro fungitoxicity assay against Leptosphaeria nodorum in copper-minus and copper-plus liquid medium (growth inhibition, light scattering); type: cell-based; settings: Parastagonospora nodorum; compound 0.05 μg/mL, copper-minus medium, 72 h at 25° C.; read-out: LEPTNO % Inhn. Minus Copper Observed
# Method: In vitro fungitoxicity assays against Leptosphaeria nodorum (LEPTNO) were conducted using the liquid growth medium described by Coursen and Sisler (American Journal of Botany 1960, 47, 541-549) except that copper micronutrient, normally included as CuSO4, was omitted. The medium, termed “copper-minus”, was prepared by dissolving 10 g glucose, 1.5 g K2HPO4, 2 g KH2PO4 and 1 g (NH4)2SO4 in 1 liter of deionized water and treating the solution with 0.5 g Chelex 100 resin (Bio-Rad Analytical grade, 50-100 mesh, sodium form, cat#142-2822) by stirring at room temperature for 1 h. MgSO4.7H2O (0.5 g) was added, and stirring was continued for a further hour. Trace elements (minus CuSO4), and vitamins described by Coursen and Sisler were added from concentrated stock solutions and the entire medium was sterilized by filtration. Medium containing copper was prepared by adding CuCl2.2H2O to the copper-minus medium at 20 μM. […]
# LEPTNO was grown on potato dextrose agar in 9 cm diameter petri dishes for 7 days. […] Microtiter plates were inoculated with 100 μL of this spore suspension and the plates incubated at 25° C. for 72 h before assessing fungal growth by measuring light scattering in a NepheloStar plate reader. Growth inhibition was determined by comparing growth in the presence of test compound with growth in control wells lacking test compound. […]
Structure (SMILES),% Inhn (copper chloride alone; printed in column Minus copper Observed) (Phytophthora capsici) [%],inhibition of growth at 0.05 µg/mL [1] [%]
"O.O.[Cl][Cu][Cl] [CuCl2, CuCl2.2H2O]",4.5 ± 7.9,–
O=C(N/N=C/c1cccc(F)c1O)c1ccccc1 [Compound 1],–,4.4
